In one experiment the test system is T. reesei CL847. Nature of the experiment: Fed-batch cellulase production by T. reesei CL847 with sugar mixture containing inducing sugar; specific rate of protein production. The note with it: for specific protein production rate: fed-batch 166 h, 30° C. It counts as cell-based, Trichoderma reesei. Here is the method: After growing cells of T. reesei CL847 (Durand H. et al. (1988a) Classical and molecular genetics applied to Trichoderma reesei for the selection of improved cellulolytic industrial strains. In: FEMS Symposium n° 43: Biochemistry and Genetics of Cellulose Degradation, p. 135-151. Academic Press, London) on glucose in stirred flasks up to the exhaustion of the glucose, cellulase production was carried out using a “fed-batch” process employing a solution the composition of which was as follows: 50 g/L of a mixture of sugars and 15 mL/L of 20% by weight NH3 as described in the publication “A new stoichiometric miniaturization strategy for screening of industrial microbial strains: application to cellulase hyper-producing Trichoderma reesei strains”, Microbial Cell Factories 2012, 11:70.
The mixture of sugars used contained (100−x)% by weight of glucose and x% by weight of inducing sugar:
in the first case (control), the inducing sugar was lactose at a quantity of x=8%
in the second, third and fourth cases, the inducing sugar was sophorose from the hydrolysate obtained in Example 3 which had been supplemented with pure glucose in order to have x=8%, x=0.3% and x=0.03% respectively.
The fed-batch process was carried out for 166 hours with a solution supply flow rate of 0.3 mL/h and at a temperature of 30° C.
Daily samples were taken in order to monitor the concentration of cells and the concentration of proteins. The induction capacity of the mixture of sugars used for the fed-batch process was expressed as the specific rate of protein production (mg of proteins produced per gram of producer cells per hour).

Experiment [1] deals with cellulolytic Trichoderma reesei system. The note with it: known from the prior art (Mandels et al. 1962); cited from earlier work.
[2] abbreviates: inducing sugar x=8% by weight of sugar mixture (rest glucose).

The source of these data is patent publication US20150336999A1, “PROCESS FOR THE PRODUCTION OF SOPHOROSE STARTING FROM SOPHOROLIPIDS” (IFP ENERGIES NOUVELLES, priority 2012, published 2015).

Values joined by “and” are separate entries in the source; they are usually repeats but may differ in a detail not shown here. Identical values can stand only once.

For `OC[C@H]1O[C@@H](O[C@H]2[C@H](O)[C@@H](O)C(O)O[C@@H]2CO)[C@H](O)[C@@H](O)[C@H]1O` (stereo partly drawn) [lactose, reference compound], the “specific protein production rate” value in the experiment with T. reesei CL847 (setting [2]) is 6.4 mg/g/h and ~6 mg/g/h.
For the molecule `O=C[C@H](O[C@@H]1O[C@H](CO)[C@@H](O)[C@H](O)[C@H]1O)[C@@H](O)[C@H](O)[C@H](O)CO` [sophorose, 2-O-β-D-glucopyranosyl-D-glucose], the “inducer of the cellulolytic Trichoderma reesei system” value in experiment [1] is recorded as “very good inducer”. Also, in the experiment on T. reesei CL847 (8% sophorose versus 8% lactose), the “induction relative to the mixture containing lactose at the same concentration” value is on record as “approximately twice as high”. Also, the “specific protein production rate” value in the experiment with T. reesei CL847 (inducing sugar x=0.03% by weight of sugar mixture (rest glucose)) is given as roughly 6 mg/g/h; with T. reesei CL847 (inducing sugar x=0.3% by weight of sugar mixture (rest glucose)), 10.5 mg/g/h; in the experiment on T. reesei CL847 (setting [2]), 12 mg/g/h.
